pIC50: −log10 of the molar value.
molecular target: Syk (Homo sapiens, UniProt P43405); assay: High Throughput Syk Biochemical Assay (KinEASE TR-FRET); conditions: TABLE D, 20 μM ATP, 1 μM biotinylated peptide, 0.015 nM Syk, 30 min at room temperature, read-out: IC50
Procedure, shortened: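 Compounds in DMSO dilution series were tested against Syk, which phosphorylates an XL665-tagged peptide. The phosphoproduct was bound by Eu-labelled phosphotyrosine antibody in a two-step endpoint format.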

| Compound | pIC50 |
| --- | --- |
| C[C@@H](Oc1nc(-c2ccc3c(cnn3C)c2)cc2ncn(C)c12)[C@H]1CNC(=O)C1 [(R)-4-((R)-1-((3-methyl-6-(1-methyl-1H-indazol-5-yl)-3H-imidazo[4,5-c]pyridin-4-yl)oxy)ethyl)pyrrolidin-2-one] | 8.02 |
| C[C@@H](Oc1nc(-c2ccc3cnn(C)c3c2)cc2ncn(C)c12)[C@H]1CNC(=O)C1 [(R)-4-((R)-1-((3-methyl-6-(1-methyl-1H-indazol-6-yl)-3H-imidazo[4,5-c]pyridin-4-yl)oxy)ethyl)pyrrolidin-2-one] | 7.77 |
| Cc1nc2cc(-c3cc4ncn(C)c4c(O[C@H](C)[C@H]4CNC(=O)C4)n3)ccc2s1 [(R)-4-((R)-1-((3-methyl-6-(2-methylbenzo[d]thiazol-5-yl)-3H-imidazo[4,5-c]pyridin-4-yl)oxy)ethyl)pyrrolidin-2-one] | 7.91 |
| Cc1cnn2cc(-c3ccc(N4CCOCC4)cc3)nc(O[C@H](C)[C@H]3CNC(=O)C3)c12 [(R)-4-((R)-1-((3-methyl-6-(4-morpholinophenyl)pyrazolo[1,5-a]pyrazin-4-yl)oxy)ethyl)pyrrolidin-2-one] | 9.42 |
| C[C@@H](Oc1cc(-c2cnn(C(C)(C)C)c2)cc2ncn(C)c12)[C@H]1CNC(=O)C1 [(R)-4-((R)-1-((5-(1-(tert-butyl)-1H-pyrazol-4-yl)-1-methyl-1H-benzo[d]imidazol-7-yl)oxy)ethyl)pyrrolidin-2-one] | 8.27 |
| CCn1ccc(-c2cc(O[C@H](C)[C@H]3CNC(=O)C3)c3scnc3c2)n1 [(R)-4-((R)-1-((5-(1-ethyl-1H-pyrazol-3-yl)benzo[d]thiazol-7-yl)oxy)ethyl)pyrrolidin-2-one] | 8.47 |
| COc1ccc(-c2cc(O[C@H](C)[C@H]3CNC(=O)C3)c3c(c2)ncn3C)cc1OC [(R)-4-((R)-1-((5-(3,4-dimethoxyphenyl)-1-methyl-1H-benzo[d]imidazol-7-yl)oxy)ethyl)pyrrolidin-2-one] | 7.42 |
| COc1ccc(-c2cc(O[C@H](C)[C@H]3CNC(=O)C3)c3sc(C)nc3c2)cc1OC [(R)-4-((R)-1-((5-(3,4-dimethoxyphenyl)-2-methylbenzo[d]thiazol-7-yl)oxy)ethyl)pyrrolidin-2-one] | 7.16 |
| COc1cccc(-c2cc(O[C@H](C)[C@H]3CNC(=O)C3)c3c(c2)ncn3C)n1 [(R)-4-((R)-1-((5-(6-methoxypyridin-2-yl)-1-methyl-1H-benzo[d]imidazol-7-yl)oxy)ethyl)pyrrolidin-2-one] | 7.34 |
| Cc1nn(C)c2ccc(-c3cc4ncn(C)c4c(O[C@H](C)[C@H]4CNC(=O)C4)n3)cc12 [(R)-4-((R)-1-((6-(1,3-dimethyl-1H-indazol-5-yl)-3-methyl-3H-imidazo[4,5-c]pyridin-4-yl)oxy)ethyl)pyrrolidin-2-one] | 7.98 |
| C[C@@H](Oc1cc(-c2cnn(CC(F)F)c2)cn2nccc12)[C@H]1CNC(=O)C1 [(R)-4-((R)-1-((6-(1-(2,2-difluoroethyl)-1H-pyrazol-4-yl)pyrazolo[1,5-a]pyridin-4-yl)oxy)ethyl)pyrrolidin-2-one] | 7.99 |
| C[C@@H](Oc1cc(-c2cnn(C(C)(C)C)c2)cn2ncc(Cl)c12)[C@H]1CNC(=O)C1 [(R)-4-((R)-1-((6-(1-(tert-butyl)-1H-pyrazol-4-yl)-3-chloropyrazolo[1,5-a]pyridin-4-yl)oxy)ethyl)pyrrolidin-2-one] | 9.57 |

same assay, conditions: table 'ALL NEW COMPOUNDS IN 2014', 20 μM ATP, 1 μM biotinylated peptide, 0.015 nM Syk, 30 min at room temperature, read-out: Syk IC50

| Compound | pIC50 |
| --- | --- |
| CCOc1ccc(-c2cc3ncn(C4CC4)c3c(O[C@H](C)[C@H]3CNC(=O)C3)n2)cc1OC [(R)-4-((R)-1-((3-cyclopropyl-6-(4-ethoxy-3-methoxyphenyl)-3H-imidazo[4,5-c]pyridin-4-yl)oxy)ethyl)pyrrolidin-2-one] | 8.61 |
| COc1cc(-c2cc3ncn(C4CC4)c3c(O[C@H](C)[C@H]3CNC(=O)C3)n2)cnc1OC [(R)-4-((R)-1-((3-cyclopropyl-6-(5,6-dimethoxypyridin-3-yl)-3H-imidazo[4,5-c]pyridin-4-yl)oxy)ethyl)pyrrolidin-2-one] | 8.08 |
| C[C@@H](Oc1nc(-c2cnc(N3CCN(C4COC4)CC3)c(F)c2)cc2ncn(C3CC3)c12)[C@H]1CNC(=O)C1 [(R)-4-((R)-1-((3-cyclopropyl-6-(5-fluoro-6-(4-(oxetan-3-yl)piperazin-1-yl)pyridin-3-yl)-3H-imidazo[4,5-c]pyridin-4-yl)oxy)ethyl)pyrrolidin-2-one] | 7.76 |
| Cc1ccc(-c2cc3ncn(C4CC4)c3c(O[C@H](C)[C@H]3CNC(=O)C3)n2)s1 [(R)-4-((R)-1-((3-cyclopropyl-6-(5-methylthiophen-2-yl)-3H-imidazo[4,5-c]pyridin-4-yl)oxy)ethyl)pyrrolidin-2-one] | 8.13 |
| C[C@@H](Oc1nc(-c2ccc(N3CCN(C4COC4)CC3)nc2)cc2ncn(C3CC3)c12)[C@H]1CNC(=O)C1 [(R)-4-((R)-1-((3-cyclopropyl-6-(6-(4-(oxetan-3-yl)piperazin-1-yl)pyridin-3-yl)-3H-imidazo[4,5-c]pyridin-4-yl)oxy)ethyl)pyrrolidin-2-one] | 8.44 |
| C[C@@H](Oc1nc(-c2ccncc2)cc2ncn(C3CC3)c12)[C@H]1CNC(=O)C1 [(R)-4-((R)-1-((3-cyclopropyl-6-(pyridin-4-yl)-3H-imidazo[4,5-c]pyridin-4-yl)oxy)ethyl)pyrrolidin-2-one] | 7.93 |
| C[C@@H](Oc1nc(-c2ccc(N3CCN(C4COC4)CC3)nc2)cc2ncn(C)c12)[C@H]1CNC(=O)C1 [(R)-4-((R)-1-((3-methyl-6-(6-(4-(oxetan-3-yl)piperazin-1-yl)pyridin-3-yl)-3H-imidazo[4,5-c]pyridin-4-yl)oxy)ethyl)pyrrolidin-2-one] | 7.91 |
| C[C@@H](Oc1cc(-c2ccn(C(C)(C)C)n2)cc2ncn(C3CC3)c12)[C@H]1CNC(=O)C1 [(R)-4-((R)-1-((5-(1-(tert-butyl)-1H-pyrazol-3-yl)-1-cyclopropyl-1H-benzo[d]imidazol-7-yl)oxy)ethyl)pyrrolidin-2-one] | 8.30 |
| C[C@@H](Oc1cc(-c2cnn(C(C)(C)C)c2)cc2ncn(C3CC3)c12)[C@H]1CNC(=O)C1 [(R)-4-((R)-1-((5-(1-(tert-butyl)-1H-pyrazol-4-yl)-1-cyclopropyl-1H-benzo[d]imidazol-7-yl)oxy)ethyl)pyrrolidin-2-one] | 9.34 |
| C[C@@H](Oc1cc(-c2nc(C(C)(C)C)cs2)cc2ncn(C3CC3)c12)[C@H]1CNC(=O)C1 [(R)-4-((R)-1-((5-(4-(tert-butyl)thiazol-2-yl)-1-cyclopropyl-1H-benzo[d]imidazol-7-yl)oxy)ethyl)pyrrolidin-2-one] | 9.35 |
| C[C@@H](Oc1cc(-c2cccc(N)n2)cc2ncn(C3CC3)c12)[C@H]1CNC(=O)C1 [(R)-4-((R)-1-((5-(6-aminopyridin-2-yl)-1-cyclopropyl-1H-benzo[d]imidazol-7-yl)oxy)ethyl)pyrrolidin-2-one] | 8.07 |
| C[C@@H](Oc1nc(-c2ccnc(C3C=NN=C3)c2)cc2ncn(C3CC3)c12)[C@H]1CNC(=O)C1 [(R)-4-((R)-1-((6-(2-(1H-pyrazol-4-yl)pyridin-4-yl)-3-cyclopropyl-3H-imidazo[4,5-c]pyridin-4-yl)oxy)ethyl)pyrrolidin-2-one] | 8.07 |
| C[C@@H](Oc1nc(-c2cnc(C(C)(C)C)s2)cc2ncn(C3CC3)c12)[C@H]1CNC(=O)C1 [(R)-4-((R)-1-((6-(2-(tert-butyl)thiazol-5-yl)-3-cyclopropyl-3H-imidazo[4,5-c]pyridin-4-yl)oxy)ethyl)pyrrolidin-2-one] | 8.68 |

Source: patent US10005774B2, “Syk inhibitors” (Gilead Sciences, Inc., priority 2013, dated 2018)
